# Results from ChEMBL document CHEMBL1909046, “DrugMatrix in vitro pharmacology data”.
# System: not listed separately
# Experiment: DRUGMATRIX: Phorbol Ester radioligand binding (ligand: [3H] PDBu)
# Format: cell membranes, Mus musculus, ICR, Brain, Membrane
# Details: Not Active = under 50% inhibition at 10 µM
Structure (SMILES),IC50,Ki
CC1CCC(NC(=O)N(CCCl)N=O)CC1 (configuration not stated) [SEMUSTINE],Not Active,Not Active
O=C1C[C@@H]2OCC=C3CN4CC[C@]56c7ccccc7N1[C@H]5[C@H]2[C@H]3C[C@H]46 [STRYCHNINE],Not Active,Not Active
C[N+](C)(C)CCOC(=O)CCC(=O)OCC[N+](C)(C)C.[Cl-].[Cl-] [SUCCINYLCHOLINE CHLORIDE],Not Active,Not Active
Nc1ccc(S(=O)(=O)NC(=O)c2ccccc2)cc1 [SULFABENZAMIDE],Not Active,Not Active
CCCCCCCCNC(C)C(O)c1ccc(SC(C)C)cc1 (configuration not stated) [SULOCTIDIL],Not Active,Not Active
O=c1[nH]c(=O)n(C2CCCO2)cc1F (configuration not stated) [TEGAFUR],Not Active,Not Active
CC(=N)S [THIOACETAMIDE],Not Active,Not Active

# System: not listed separately
# Experiment: DRUGMATRIX: Serotonin (5-Hydroxytryptamine) 5-HT3 radioligand binding (ligand: [3H] GR-65630)
# Format: cell membranes, Membrane
# Details: hek293; Not Active = under 50% inhibition at 10 µM
Structure (SMILES),IC50,Ki
CC1CCC(NC(=O)N(CCCl)N=O)CC1 (configuration not stated) [SEMUSTINE],Not Active,Not Active
O=C1C[C@@H]2OCC=C3CN4CC[C@]56c7ccccc7N1[C@H]5[C@H]2[C@H]3C[C@H]46 [STRYCHNINE],Not Active,Not Active
C[N+](C)(C)CCOC(=O)CCC(=O)OCC[N+](C)(C)C.[Cl-].[Cl-] [SUCCINYLCHOLINE CHLORIDE],Not Active,Not Active
Nc1ccc(S(=O)(=O)NC(=O)c2ccccc2)cc1 [SULFABENZAMIDE],Not Active,Not Active
CCCCCCCCNC(C)C(O)c1ccc(SC(C)C)cc1 (configuration not stated) [SULOCTIDIL],Not Active,Not Active
O=c1[nH]c(=O)n(C2CCCO2)cc1F (configuration not stated) [TEGAFUR],Not Active,Not Active
CC(=N)S [THIOACETAMIDE],Not Active,Not Active

# Target: D(1A) dopamine receptor (Homo sapiens, UniProt P21728)
# Sequence (P21728 whole entry): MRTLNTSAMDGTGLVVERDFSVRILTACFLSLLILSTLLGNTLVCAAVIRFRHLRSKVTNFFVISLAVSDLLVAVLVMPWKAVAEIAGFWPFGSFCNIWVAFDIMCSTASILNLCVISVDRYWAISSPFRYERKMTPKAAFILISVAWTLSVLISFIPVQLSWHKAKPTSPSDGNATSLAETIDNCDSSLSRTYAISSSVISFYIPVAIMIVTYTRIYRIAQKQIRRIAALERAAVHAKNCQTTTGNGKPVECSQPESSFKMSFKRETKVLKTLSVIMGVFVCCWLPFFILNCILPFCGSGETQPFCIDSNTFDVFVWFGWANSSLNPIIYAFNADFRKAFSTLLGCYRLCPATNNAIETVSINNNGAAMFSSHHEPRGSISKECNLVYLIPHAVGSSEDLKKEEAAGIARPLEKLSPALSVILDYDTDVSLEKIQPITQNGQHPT
# Experiment: DRUGMATRIX: Dopamine D1 radioligand binding (ligand: [3H] SCH-23390)
# Format: cell membranes, CHO, Membrane
# Details: cho; Not Active = under 50% inhibition at 10 µM
row,Structure (SMILES),IC50
1,CC1CCC(NC(=O)N(CCCl)N=O)CC1 (configuration not stated) [SEMUSTINE],Not Active
2,O=C1C[C@@H]2OCC=C3CN4CC[C@]56c7ccccc7N1[C@H]5[C@H]2[C@H]3C[C@H]46 [STRYCHNINE],Not Active
3,C[N+](C)(C)CCOC(=O)CCC(=O)OCC[N+](C)(C)C.[Cl-].[Cl-] [SUCCINYLCHOLINE CHLORIDE],Not Active
4,Nc1ccc(S(=O)(=O)NC(=O)c2ccccc2)cc1 [SULFABENZAMIDE],Not Active
5,CCCCCCCCNC(C)C(O)c1ccc(SC(C)C)cc1 (configuration not stated) [SULOCTIDIL],Not Active
6,O=c1[nH]c(=O)n(C2CCCO2)cc1F (configuration not stated) [TEGAFUR],Not Active
7,CC(=N)S [THIOACETAMIDE],Not Active

# Target: T1, Glucocorticoid receptor (Homo sapiens, UniProt P04150); note: in other assays of this panel Not Active means under 50% inhibition at 10 µM
# T1 sequence (P04150 whole entry): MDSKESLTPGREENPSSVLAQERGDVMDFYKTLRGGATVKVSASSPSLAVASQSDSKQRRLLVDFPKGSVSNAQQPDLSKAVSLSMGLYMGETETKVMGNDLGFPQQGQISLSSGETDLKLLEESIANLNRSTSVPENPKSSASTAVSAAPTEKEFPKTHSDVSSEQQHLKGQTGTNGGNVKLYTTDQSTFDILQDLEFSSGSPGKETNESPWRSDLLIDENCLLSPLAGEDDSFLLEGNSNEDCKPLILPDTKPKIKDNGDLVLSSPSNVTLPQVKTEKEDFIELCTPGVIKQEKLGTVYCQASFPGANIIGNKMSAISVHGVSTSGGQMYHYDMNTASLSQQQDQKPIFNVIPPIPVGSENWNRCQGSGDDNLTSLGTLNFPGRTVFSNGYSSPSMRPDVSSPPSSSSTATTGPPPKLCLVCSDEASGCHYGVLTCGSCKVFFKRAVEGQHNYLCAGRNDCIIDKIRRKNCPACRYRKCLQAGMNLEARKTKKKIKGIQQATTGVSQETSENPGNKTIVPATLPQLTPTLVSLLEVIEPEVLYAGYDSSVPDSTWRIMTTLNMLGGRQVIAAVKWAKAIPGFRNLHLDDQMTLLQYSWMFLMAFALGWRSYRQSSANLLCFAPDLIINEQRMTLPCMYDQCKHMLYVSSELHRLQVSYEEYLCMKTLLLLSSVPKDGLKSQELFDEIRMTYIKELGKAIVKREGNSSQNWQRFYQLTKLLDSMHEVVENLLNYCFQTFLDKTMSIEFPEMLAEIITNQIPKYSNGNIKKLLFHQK
# Details: hela s3
row,Structure (SMILES),IC50
1,CC1CCC(NC(=O)N(CCCl)N=O)CC1 (configuration not stated) [SEMUSTINE],Not Active
2,C[N+](C)(C)CCOC(=O)CCC(=O)OCC[N+](C)(C)C.[Cl-].[Cl-] [SUCCINYLCHOLINE CHLORIDE],Not Active
3,Nc1ccc(S(=O)(=O)NC(=O)c2ccccc2)cc1 [SULFABENZAMIDE],Not Active
4,CCCCCCCCNC(C)C(O)c1ccc(SC(C)C)cc1 (configuration not stated) [SULOCTIDIL],Not Active

# System: not listed separately
# Experiment: DRUGMATRIX: GABAA, Chloride Channel, TBOB radioligand binding (ligand: [3H] TBOB)
# Format: cell membranes, Rattus norvegicus, Wistar, Cerebral cortex, Membrane
# Details: Not Active = under 50% inhibition at 10 µM
Structure (SMILES),IC50,Ki
CC1CCC(NC(=O)N(CCCl)N=O)CC1 (configuration not stated) [SEMUSTINE],Not Active,Not Active
O=C1C[C@@H]2OCC=C3CN4CC[C@]56c7ccccc7N1[C@H]5[C@H]2[C@H]3C[C@H]46 [STRYCHNINE],Not Active,Not Active
C[N+](C)(C)CCOC(=O)CCC(=O)OCC[N+](C)(C)C.[Cl-].[Cl-] [SUCCINYLCHOLINE CHLORIDE],Not Active,Not Active
Nc1ccc(S(=O)(=O)NC(=O)c2ccccc2)cc1 [SULFABENZAMIDE],Not Active,Not Active
CCCCCCCCNC(C)C(O)c1ccc(SC(C)C)cc1 (configuration not stated) [SULOCTIDIL],Not Active,Not Active
O=c1[nH]c(=O)n(C2CCCO2)cc1F (configuration not stated) [TEGAFUR],Not Active,Not Active
CC(=N)S [THIOACETAMIDE],Not Active,Not Active

# System: not listed separately
# Experiment: DRUGMATRIX: Sodium/nucleoside co-transporter radioligand binding (ligand: nitrobenzylthioinosine)
# Format: cell membranes, Cavia porcellus, Dunkin-Hartley, Cerebral cortex, Membrane
# Details: Not Active = under 50% inhibition at 10 µM
Structure (SMILES),IC50,Ki
CC1CCC(NC(=O)N(CCCl)N=O)CC1 (configuration not stated) [SEMUSTINE],Not Active,Not Active
O=C1C[C@@H]2OCC=C3CN4CC[C@]56c7ccccc7N1[C@H]5[C@H]2[C@H]3C[C@H]46 [STRYCHNINE],Not Active,Not Active
C[N+](C)(C)CCOC(=O)CCC(=O)OCC[N+](C)(C)C.[Cl-].[Cl-] [SUCCINYLCHOLINE CHLORIDE],Not Active,Not Active
Nc1ccc(S(=O)(=O)NC(=O)c2ccccc2)cc1 [SULFABENZAMIDE],Not Active,Not Active
CCCCCCCCNC(C)C(O)c1ccc(SC(C)C)cc1 (configuration not stated) [SULOCTIDIL],Not Active,Not Active
O=c1[nH]c(=O)n(C2CCCO2)cc1F (configuration not stated) [TEGAFUR],Not Active,Not Active
CC(=N)S [THIOACETAMIDE],Not Active,Not Active

# Target: Beta-1 adrenergic receptor (Homo sapiens, UniProt P08588)
# Sequence (P08588 whole entry): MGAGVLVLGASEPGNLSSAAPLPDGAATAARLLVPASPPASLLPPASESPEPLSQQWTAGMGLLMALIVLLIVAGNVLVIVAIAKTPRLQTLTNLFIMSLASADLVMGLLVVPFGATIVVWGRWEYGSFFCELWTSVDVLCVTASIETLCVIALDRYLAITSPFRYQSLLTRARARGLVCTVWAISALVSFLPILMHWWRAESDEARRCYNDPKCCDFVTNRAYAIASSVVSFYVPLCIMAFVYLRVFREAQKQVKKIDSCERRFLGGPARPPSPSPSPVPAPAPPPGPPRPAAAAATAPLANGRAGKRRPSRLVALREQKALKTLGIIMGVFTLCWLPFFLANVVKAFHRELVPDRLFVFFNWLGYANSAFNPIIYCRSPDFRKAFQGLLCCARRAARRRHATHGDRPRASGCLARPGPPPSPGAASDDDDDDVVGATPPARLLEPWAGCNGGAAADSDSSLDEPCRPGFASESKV
# Experiment: DRUGMATRIX: Adrenergic beta1 radioligand binding (ligand: [125I] Cyanopindolol)
# Format: cell membranes, CHO-K1, Membrane
# Details: cho-k1; Not Active = under 50% inhibition at 10 µM
row,Structure (SMILES),IC50
1,CC1CCC(NC(=O)N(CCCl)N=O)CC1 (configuration not stated) [SEMUSTINE],Not Active
2,C[N+](C)(C)CCOC(=O)CCC(=O)OCC[N+](C)(C)C.[Cl-].[Cl-] [SUCCINYLCHOLINE CHLORIDE],Not Active
3,Nc1ccc(S(=O)(=O)NC(=O)c2ccccc2)cc1 [SULFABENZAMIDE],Not Active
4,O=c1[nH]c(=O)n(C2CCCO2)cc1F (configuration not stated) [TEGAFUR],Not Active
5,CC(=N)S [THIOACETAMIDE],Not Active

# Target: Kappa-type opioid receptor (Homo sapiens, UniProt P41145)
# Sequence (P41145 whole entry): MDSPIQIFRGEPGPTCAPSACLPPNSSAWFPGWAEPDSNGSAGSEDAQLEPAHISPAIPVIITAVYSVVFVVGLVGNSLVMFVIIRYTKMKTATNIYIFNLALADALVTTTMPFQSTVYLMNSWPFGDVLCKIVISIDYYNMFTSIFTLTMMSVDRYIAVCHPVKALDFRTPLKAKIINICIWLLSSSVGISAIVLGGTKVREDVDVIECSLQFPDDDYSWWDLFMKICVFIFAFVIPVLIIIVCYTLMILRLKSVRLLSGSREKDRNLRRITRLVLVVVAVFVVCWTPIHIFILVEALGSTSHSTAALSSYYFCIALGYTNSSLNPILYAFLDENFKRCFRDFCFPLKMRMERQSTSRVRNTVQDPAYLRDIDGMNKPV
# Experiment: DRUGMATRIX: Opiate kappa (OP2, KOP) radioligand binding (ligand: [3H] Diprenorphine)
# Format: cell membranes, HEK293, Membrane
# Details: hek293; Not Active = under 50% inhibition at 10 µM
row,Structure (SMILES),IC50
1,CC1CCC(NC(=O)N(CCCl)N=O)CC1 (configuration not stated) [SEMUSTINE],Not Active
2,Nc1ccc(S(=O)(=O)NC(=O)c2ccccc2)cc1 [SULFABENZAMIDE],Not Active
3,CCCCCCCCNC(C)C(O)c1ccc(SC(C)C)cc1 (configuration not stated) [SULOCTIDIL],Not Active
4,O=c1[nH]c(=O)n(C2CCCO2)cc1F (configuration not stated) [TEGAFUR],Not Active
5,CC(=N)S [THIOACETAMIDE],Not Active
